According to ChEMBL document CHEMBL3352420, “Discovery of 2-pyridylureas as glucokinase activators” (J Med Chem, 2014):

How the values were obtained:
[1] = target: T1, Hexokinase-4 (Homo sapiens, UniProt P35557); test: Activation of purified human glucokinase isoform 3 (13 to 466 aa) using 5 mM glucose by spectrophotometry in presence of NAD+ and glucose 6-phosphate dehydrogenase in presence of 4% HSA
T1 sequence (P35557 whole entry): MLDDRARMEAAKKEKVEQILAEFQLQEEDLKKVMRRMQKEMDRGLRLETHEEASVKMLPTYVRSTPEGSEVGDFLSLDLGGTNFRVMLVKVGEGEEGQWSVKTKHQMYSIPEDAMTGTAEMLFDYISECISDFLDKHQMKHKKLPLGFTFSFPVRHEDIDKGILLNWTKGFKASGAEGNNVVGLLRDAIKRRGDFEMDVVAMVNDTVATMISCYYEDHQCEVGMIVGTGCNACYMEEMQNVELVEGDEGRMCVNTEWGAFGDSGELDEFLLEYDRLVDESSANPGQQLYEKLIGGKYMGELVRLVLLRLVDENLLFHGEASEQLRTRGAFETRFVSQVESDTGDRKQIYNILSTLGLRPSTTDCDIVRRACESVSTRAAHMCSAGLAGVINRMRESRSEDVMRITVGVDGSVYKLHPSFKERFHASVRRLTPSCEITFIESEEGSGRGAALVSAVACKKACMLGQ

[2] = target: T1, Hexokinase-4; test: Activation of purified human glucokinase isoform 3 (13 to 466 aa) using 5 mM glucose by spectrophotometry in presence of NAD+ and glucose 6-phosphate dehydrogenase
[3] = Extraction ratio in mouse liver microsomes at 1 uM up to 20 mins by LC-MS/MS analysis; type: ADME; details: read-out: ERH
[4] = Extraction ratio in human liver microsomes at 1 uM up to 20 mins by LC-MS/MS analysis; type: ADME; details: read-out: ERH

Row | SMILES | EC50 ([1]; read-out: EC50) [nM] | EC50 [2] [nM] | hepatic extraction ratio at 20 min, 1 µM [3] | hepatic extraction ratio at 20 min, 1 µM [4] | EC50 [1]
1 | CCc1ncccc1Oc1cc(Sc2ccccn2)cnc1NC(=O)NCc1cccc(O)c1 | 2830 | 276 |  |  | 
2 | CNC(=O)Nc1ncc(SC2CCN(S(C)(=O)=O)CC2)cc1Oc1cccnc1C | 248 | 195 | 0.32 | 0.5 | 
3 | CNC(=O)Nc1ncc(SC2CCN(C(C)=O)CC2)cc1Oc1cccnc1C | 196 | 111 | 0.33 | 0.44 | 
4 | CCc1ncccc1Oc1cc(Sc2ccccn2)cnc1NC(=O)NCc1ccncc1 | 1160 | 952 |  |  | 
5 | CCc1ncccc1Oc1cc(Sc2ccccn2)cnc1NC(=O)NC | 231 | 88 | 0.85 | 0.75 | 
6 | CCOC(=O)Nc1ncc(Sc2ccccn2)cc1Oc1cccnc1CC |  | > 50000 |  |  | Not Active
7 | CCc1ncccc1Oc1cc(Sc2ccccn2)cnc1NC(=O)NC(C)C |  | > 50000 |  |  | Not Active
8 | CCc1ncccc1Oc1cc(Sc2ccccn2)cnc1NC(=O)NCc1cccnc1 | 1970 | 758 |  |  | 
9 | CNC(=O)Nc1ncc(Sc2ccccn2)cc1Oc1c(C)n[nH]c1C | 345 | 2240 |  |  | 
10 | CNC(=O)Nc1ncc(SCC2CCOCC2)cc1Oc1cccnc1C | 436 | 317 | 0.43 | 0.48 | 
11 | CCn1nccc1Oc1cc(Sc2ccccn2)cnc1NC(=O)NC | 472 | 319 | 0.83 | 0.45 | 
12 | CCc1ncccc1Oc1cc(Sc2ccccn2)cnc1NC(N)=O | 4480 | 1730 |  |  | 
13 | CNC(=O)Nc1ncc(SCc2ccccn2)cc1Oc1cccnc1C | 9300 | 3090 |  |  | 
